Where two headings read alike, the source gives them in different places.
Legend:
[1] = test system: MROD activities in porcine liver microsomes (CYP1A)
Experimental: (§1) Incubation mixtures contained microsomal protein (0.2 mg), phosphate buffer (pH 7.4, 50 mM) and substrate (2 μM; 7-ethoxyresofurin for EROD activity or 7-methoxyresofurin for MROD activity). Reactions were started by the addition of 1 mM NADPH. The reaction mixture, in a final volume of 500 μL, was incubated in a water bath at 37 °C for 5 min. Reactions were terminated with ice-cold 100% methanol (500 μL), followed by centrifugation at 7,500 × g for 5 min. Resorufin concentrations in the supernatants were measured with HPLC the same day as described above. EROD and MROD activities were expressed as pmol of resorufin per milligram protein and minute.
(§2) The studies were performed by using two pools of microsomes from six entire (pool 1) and six castrated male pigs (pool 2). […] For the inhibition study, the substrate range was from 0.25 to 2 µM. […] The inhibitors were dissolved in DMSO, and the same volume of DMSO was added to the control incubations. The final concentration of DMSO in the incubations was below 0.5%. All inhibitors were added before the addition of the substrate. […] Inhibition is expressed as the percent of the corresponding incubation control.
(§3) Michaelis-Menten parameters (Km and Vmax values) and inhibition constants (Ki) were determined by a GraphPad Prism version 4.0 for Windows, GraphPad Software (San Diego California, USA). Data were additionally assayed by a SigmaPlot Enzyme Kinetics 1.3 software. […] When Eadie-Hofstee plots indicated monophasic kinetics, the following equation was applied to estimate kinetic parameters: V=(Vmax*S)/(Km+S); when Eadie-Hofstee plots indicated biphasic kinetics, the following equation was applied: V=(Vmax1*S)/(Km1+S)+ (V max2*S)/(Km2+S).

CYP1A (EROD activity) = experiment: in vitro; settings: male, pig, substrate 0.25 to 2 µM
Experimental: as §1, §2, §3

[2] = test system: EROD activities in porcine liver microsomes (CYP1A); settings: for EROD activity, % of the control values: 20 μM inhibitor, microsomes from entire and castrated male pigs; for Ki, EROD: substrate 0.25 to 2 µM
Experimental: as §1, §2, §3

CYP1A (MROD activity) = experiment: in vitro; settings: male, pig, pH 7.4, Ki
Experimental: as §1, §2, §3

[3] = test system: porcine liver microsomes (MROD); settings: cited from earlier work
[4] = test system: porcine liver microsomes (MROD); settings: 95% confidence interval
[5] = test system: EROD activity (7-ethoxyresorufin O-deethylation); experiment: Enzyme kinetics of resorufin formation from 7-ethoxyresorufin (EROD) in hepatic microsomes; format: in vitro ADME, pig; settings: male, pig, 95% confidence interval
Experimental: as §1
(§4) The studies were performed by using two pools of microsomes from six entire (pool 1) and six castrated male pigs (pool 2). For the kinetic studies, EROD and MROD activities were determined over the substrate concentration range from 0.0156 to 3.0 μM. […] The final concentration of DMSO in the incubations was below 0.5%.
(§5) Michaelis-Menten parameters (Km and Vmax values) and inhibition constants (Ki) were determined by a GraphPad Prism version 4.0 for Windows, GraphPad Software (San Diego California, USA). Data were additionally assayed by a SigmaPlot Enzyme Kinetics 1.3 software. Visual analysis of Eadie-Hofstee plots was used to categorise enzyme kinetics as mono- or biphasic, i.e. whether one or more enzymes participate in the reaction. When Eadie-Hofstee plots indicated monophasic kinetics, the following equation was applied to estimate kinetic parameters: V=(Vmax*S)/(Km+S); when Eadie-Hofstee plots indicated biphasic kinetics, the following equation was applied: V=(Vmax1*S)/(Km1+S)+ (V max2*S)/(Km2+S).

[6] = test system: porcine liver microsomes (EROD); experiment: as above; format: in vitro ADME, pig; settings: 95% confidence interval
Experimental: as §1, §4, §5

[7] = test system: porcine liver microsomes (EROD); design: method as in Messina et al. [6]; settings: ref Messina et al. [6]; cited from earlier work
[8] = Stability of resorufin in incubation supernatants; format: physicochemical
Experimental: The stability was assessed by measuring resorufin in the supernatant (n=8) stored in +4 °C and protected from light for several days and measured at days 0, 1, 2, 3, 5 and 8. A pool of microsomes used for the stability study was previously used for study on linearity with microsomal protein. Resorufin concentrations in those samples varied from 0.9 to 8.1 pmol/mL. Stability of resorufin stored in room temperature was assessed using four samples with resorufin concentrations from 1.5 to 2.6 pmol/mL.

[9] = 20 μM inhibitor, microsomes from entire and castrated male pigs
[10] = microsomes from castrated pigs, substrate 0.25 to 2 µM
[11] = microsomes from entire male pigs, substrate 0.25 to 2 µM

## O=c1cc(-c2ccccc2)oc2c1ccc1ccccc12 [ANF, α-naphthoflavone]
[1]; [9]
  MROD activity, % of the control values: 30%
[1]; male, pig, 5 min, pH 7.4
  Ki: 18 nM
CYP1A (EROD activity); liver microsomes (pool 1, six entire male pigs), pH 7.4, probe 7-ethoxyresorufin, 0.25 to 2 µM, Ki, microsomes from entire male pigs
  Ki at 5 min: 31 nM
CYP1A (EROD activity); liver microsomes (pool 2, six castrated male pigs), pH 7.4, probe 7-ethoxyresorufin, 0.25 to 2 µM, Ki, microsomes from castrated pigs
  Ki at 5 min: 96 nM
[2]
  EROD activity, % of the control values: 19–23%
CYP1A (MROD activity)
  Ki at 5 min: 14 nM

## COc1ccc2nc3ccc(=O)cc-3oc2c1 [7-methoxyresorufin]
[3]
  Km: 2.2 µM
[4]; castrated male pigs
  Vmax (CI), MROD: 2.6 (2.5 – 2.8) pmol/min/mg
[4]; entire male pigs
  Vmax (CI), MROD: 0.8 (0.7 – 0.9) pmol/min/mg

## CCOc1ccc2nc3ccc(=O)cc-3oc2c1 [7-ethoxyresorufin]
[5]; liver microsomes (pool 1, six entire male pigs), pH 7.4, entire male pigs, read-out: Km (CI), EROD high-affinity component
  Km at 5 min: 0.01 µM
[5]; liver microsomes (pool 1, six entire male pigs), pH 7.4, entire male pigs, read-out: Km (CI), EROD low-affinity component
  Km at 5 min: 0.54 µM
[5]; liver microsomes (pool 2, six castrated male pigs), pH 7.4, castrated male pigs, read-out: Km (CI), EROD high-affinity component
  Km at 5 min: 0.01 µM
[5]; liver microsomes (pool 2, six castrated male pigs), pH 7.4, castrated male pigs, read-out: Km (CI), EROD low-affinity component
  Km at 5 min: 1.25 µM
[6]; castrated male pigs
  Vmax (CI), EROD high-affinity component: 7.3 (5.5 – 9.0) pmol/min/mg
  Vmax (CI), EROD low-affinity component: 15.2 (12.9 – 17.6) pmol/min/mg
[6]; entire male pigs
  Vmax (CI), EROD high-affinity component: 5.9 (3.1 – 8.6) pmol/min/mg
  Vmax (CI), EROD low-affinity component: 11.7 (9.6 – 13.8) pmol/min/mg
[7]
  Km: 0.64 µM

## Cc1nc2c([nH]1)c(=O)n(C)c(=O)n2Cc1ccco1 [Furafylline, furafylline]
[1]; 100 μM inhibitor, pre-incubated 10 min with NADPH, entire and castrated male pigs
  MROD activity, % of the control values: 55–61%
[1]; no pre-incubation of microsomes and inhibitor with NADPH (data not shown)
  Inhibition of MROD activity without pre-incubation: No inhibition
[2]; 10-100 μM, pre-incubated with microsomes and NADPH
  Effect on EROD activities: did not affect EROD activities
[2]; microsomes from castrated pigs
  Ki, EROD: no ^*
[2]; microsomes from entire male pigs
  Ki, EROD: no ^*
CYP1A (MROD activity); [10]
  Ki at 5 min: […]
CYP1A (MROD activity); [11]
  Ki at 5 min: […]

## Cc1c2ccncc2c(C)c2c1[nH]c1ccccc12 [Ellipticine, ellipticine]
[1]; [9]
  MROD activity, % of the control values: 14–16%
CYP1A (EROD activity); pH 7.4, Ki, microsomes from castrated pigs
  Ki at 5 min: 21 nM
CYP1A (EROD activity); pH 7.4, Ki, microsomes from entire male pigs
  Ki at 5 min: 17 nM
[2]
  EROD activity, % of the control values: 8–10%
CYP1A (MROD activity); [10]
  Ki at 5 min: 19 nM
CYP1A (MROD activity); [11]
  Ki at 5 min: 24 nM

## O=c1ccc2nc3ccc(O)cc3oc-2c1 [Resorufin]
[8]; stored at 4 °C under dark conditions
  Time stable in supernatants: at least 5 days
[8]; stored at room temperature
  Time stable in supernatants: at least 1 day

— publication PMC3345832, “EROD and MROD as Markers of Cytochrome P450 1A Activities in Hepatic Microsomes from Entire and Castrated Male Pigs” (Sensors (Basel, Switzerland), 2009)
